Structures are written as SMILES.

One data set has as its system MCF-7 xenografts. Briefly: In vivo breast cancer mouse xenograft model. Details: species or system nude mice. On the procedure:
The breast cancer xenograft model protocol was approved by the Institutional Animal Use and Care Committee of the University of Alabama at Birmingham (50-01-05-08B). Female athymic pathogen-free nude mice (nu/nu, 4–6 weeks) were used. Firstly, MCF-7 xenografts were initiated by implanting pellets slowly releasing estrogen for two months (1.7mg 17β-estradiol/pellet) subcutaneously in the female nude mice. After 24 h, confluent MCF-7 cells were harvested, washed two times with serum-free medium, re-suspended and injected subcutaneously (s.c.) (5 × 10^6 cells, total volume 0.2 mL) into the left inguinal area of the mice. Caliper measurement was used to measure tumor growth in two perpendicular diameters of the implant after 48 h, and its volume was determined. Mice grafted with MCF-7 were divided into different groups (7–10 mice/group). Untreated mice received the solvent only. Treated groups received different prepared derivatives as previously described.

The test system of the next data set is p53 ubiquitination. Nature of the data set: In vivo ubiquitination of p53 (transfected cells). Format: cell-based. The conditions noted are these: for IC50: cells transfected with p53, MDM2, HIS-ubiquitin, exposed 6 h, read-out: IC50 (Mean ± SEM) In Vivo p53 Ubiquitination. On the procedure:
In vivo ubiquitination of p53 was assayed according to [38] Cells were grown for 24 h (50% confluency) before transfection of 1 µg p53, 4 µg MDM2 and 1 µg HIS-ubiquitin with Gene Juice reagent. Grown for another 20 h, cells were exposed to prepared derivatives or controls for 6 h and MG132 for 4 h, then washed and collected in PBS, where 5% of the solution was kept as an input. The remaining pelleted cells (95% after centrifugation) were lysed in 700 µL of ubiquitin buffer A (6 M guanidinium HCl, 300 mM NaCl, 50 mM phosphate pH 8.0, 100 µg/mL N-ethylmaleimide), and sonicated for 5 min at 20% amplitude. Lysates were incubated overnight with Invitrogen Dynabeads His-Tag matrix and washed once with ubiquitin buffers A, B, C and phosphate buffered saline (ubiquitin buffer B: Mix ubiquitin buffer A and ubiquitin buffer C 1:1; ubiquitin buffer C: 300 mM NaCl, 50 mM phosphate pH 8.0, 100 µg/mL N-ethylmaleimide). The washed lysates were resolved by 8% sodium dodecyl sulfate–polyacrylamide gel electrophoresis, followed by immunoblotting with a p53 (DO-1) antibody.

In another data set the target is VEGFR-2 (Homo sapiens, UniProt P35968). Nature of the data set: VEGFR-2 kinase inhibition assay. The class given is biochemical. The conditions noted are these: 8 μM ATP, poly(Glu,Tyr)4:1 substrate; read-out: IC50 (Mean ± SEM) VEGFR-2. On the procedure: (§1) The EGFR and VEGFR-2 kinase activities were assayed as previously described. The assay was performed in 96-well plates pre-coated with 20 μg mL^−1 poly (Glu, Tyr)4:1 (Sigma-Aldrich Chemie GmbH, Taufkirchen, Germany) as a substrate. In each well, 85 μL of an 8 μM ATP solution and 10 μL of the compound were added at varying concentrations. Experiments were repeated three times. Reactions started with 5 μL of different kinases and incubation for 1 h at 37 °C. Plates were 3X-washed with PBS/0.1% Tween 20. Accordingly, 100 μL of anti-phosphotyrosine (PY99; 1:500 dilutions) antibody was added, and plates were incubated for another hour at room temperature. Plates were then 3X-washed, and addition of goat anti-mouse IgG horseradish peroxidase (100 μL; 1:2000 dilution) diluted in T-PBS containing 5 mg mL^−1 BSA followed. Plates were further incubated at room temperature for another hour, and then 3X-washed. Finally, 100 μL (developing solution, 0.03% H2O2, 2 mg mL^−1 o-phenylenediamine/citrate buffer, 0.1 M, pH 5.5) was added and incubation continued until color development. The reaction was stopped by 100 μL of 2M H2SO4, and the absorption was measured at 492 nm using a multiwell spectrophotometer (VERSAmax™). The inhibition rate (%) was calculated using the equation:Inhibition rate (%) = [1 − (A492/A492Control)] × 100%(1)
Chain of VEGFR-2 (P35968 20-1356): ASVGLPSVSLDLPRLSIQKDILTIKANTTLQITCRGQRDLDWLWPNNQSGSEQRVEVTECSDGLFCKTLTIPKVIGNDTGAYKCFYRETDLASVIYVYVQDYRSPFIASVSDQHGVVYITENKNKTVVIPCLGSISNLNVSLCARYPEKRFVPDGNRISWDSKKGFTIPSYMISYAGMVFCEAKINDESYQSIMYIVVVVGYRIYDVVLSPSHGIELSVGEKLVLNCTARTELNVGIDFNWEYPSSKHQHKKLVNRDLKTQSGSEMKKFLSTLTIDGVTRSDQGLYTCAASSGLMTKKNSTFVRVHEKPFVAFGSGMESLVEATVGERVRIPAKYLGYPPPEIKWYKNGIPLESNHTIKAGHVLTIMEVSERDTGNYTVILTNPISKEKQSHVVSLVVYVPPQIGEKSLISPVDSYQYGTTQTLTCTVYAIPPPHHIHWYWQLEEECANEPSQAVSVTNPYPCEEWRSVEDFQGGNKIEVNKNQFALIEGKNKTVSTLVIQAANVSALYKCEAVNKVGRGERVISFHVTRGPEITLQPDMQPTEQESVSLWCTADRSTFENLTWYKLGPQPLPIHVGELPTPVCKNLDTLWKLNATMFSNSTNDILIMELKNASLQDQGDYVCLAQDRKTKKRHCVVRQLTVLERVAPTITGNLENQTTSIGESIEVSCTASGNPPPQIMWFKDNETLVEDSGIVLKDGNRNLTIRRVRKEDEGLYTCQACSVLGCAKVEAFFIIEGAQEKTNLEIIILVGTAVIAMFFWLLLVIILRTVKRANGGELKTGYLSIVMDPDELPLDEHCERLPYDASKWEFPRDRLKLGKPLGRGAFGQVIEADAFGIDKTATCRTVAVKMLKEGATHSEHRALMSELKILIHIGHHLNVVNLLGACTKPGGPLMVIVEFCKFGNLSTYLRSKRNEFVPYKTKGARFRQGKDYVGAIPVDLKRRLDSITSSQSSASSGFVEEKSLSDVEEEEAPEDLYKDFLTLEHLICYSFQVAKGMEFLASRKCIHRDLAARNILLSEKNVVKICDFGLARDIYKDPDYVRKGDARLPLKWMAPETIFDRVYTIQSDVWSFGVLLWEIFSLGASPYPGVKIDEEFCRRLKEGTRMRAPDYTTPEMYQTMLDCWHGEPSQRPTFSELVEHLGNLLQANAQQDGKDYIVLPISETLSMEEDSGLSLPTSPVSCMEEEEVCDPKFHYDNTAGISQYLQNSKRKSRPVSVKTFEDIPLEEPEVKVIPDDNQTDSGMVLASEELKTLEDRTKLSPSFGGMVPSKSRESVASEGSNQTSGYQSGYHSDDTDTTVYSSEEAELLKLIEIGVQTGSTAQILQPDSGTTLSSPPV

The test system of the next data set is MCF-7 cells. Briefly: In vitro cytotoxic activity, MTT assay, MCF-7. The class given is cell-based, human. The note with it: for IC50: Homo sapiens, MCF7, MTT assay, MCF-7 cell line, read-out: IC50 (Mean ± SEM) MCF-7. On the procedure:
(§2) MCF-7 (human breast cancer) cells, obtained from Sigma-Aldrich Chemie GmbH, Taufkirchen, Germany, were propagated in RPMI-1640 supplemented with 10% heat inactivated FBS, 2 mM L-glutamine, and 1% standard antibiotic solution. Cells were incubated in a 5% CO2 humidified incubator at 37 °C and passaged bi-weekly. The in vitro anti-proliferative activity of the newly synthesized derivatives was assayed using standard MTT technique. Results were expressed as IC50. Experiments were repeated at least in triplicate, to obtain good reproducibility between replicate wells with standard errors below 10%. Furthermore, the cytotoxic effects of the prepared derivatives were evaluated against normal nonmalignant cells, non-tumorigenic MCF-10A, in order to find out if the synthesized derivatives have toxicity against normal cells. Additionally, results were compared with reference compounds (cisplatin and milaplatin) as positive controls.
Background: Formazan colour is commonly taken as a measure of viable cells.

In data set [1] the target is T1, p53 ubiquitination (GST-tagged HDM2) (Homo sapiens, UniProt Q00987).
T1 construct: GS4b-MDM2 RING beads were prepared as above and were used in place of the full-length MDM2; made in house; host or cells: Escherichia coli BL21
T1 sequence (Q00987 whole entry): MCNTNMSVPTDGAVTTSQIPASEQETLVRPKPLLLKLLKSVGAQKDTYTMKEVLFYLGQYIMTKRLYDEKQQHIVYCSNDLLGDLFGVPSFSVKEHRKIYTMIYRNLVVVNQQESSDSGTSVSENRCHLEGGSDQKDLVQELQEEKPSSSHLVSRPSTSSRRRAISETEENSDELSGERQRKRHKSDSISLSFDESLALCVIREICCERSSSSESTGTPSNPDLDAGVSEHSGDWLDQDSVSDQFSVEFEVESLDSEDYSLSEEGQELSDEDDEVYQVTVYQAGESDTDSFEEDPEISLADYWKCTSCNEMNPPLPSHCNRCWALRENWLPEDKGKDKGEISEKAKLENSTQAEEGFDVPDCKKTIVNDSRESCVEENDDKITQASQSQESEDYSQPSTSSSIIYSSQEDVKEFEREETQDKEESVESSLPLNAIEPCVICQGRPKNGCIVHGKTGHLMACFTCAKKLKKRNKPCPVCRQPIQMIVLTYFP
Briefly: In vitro p53 ubiquitination assay. The class given is biochemical. The note with it: for IC50: GST-tagged HDM2, p53, ubiquitin, E1 and E2 (UbcH5B), read-out: IC50 (Mean ± SEM) In Vitro p53 Ubiquitination. On the procedure: Different prepared derivatives were evaluated for their inhibitory potential against p53 ubiquitination. The method is based on incubating different compounds with GST-tagged HDM2, immobilized on glutathione-Sepharose, p53, ubiquitin, E1 and E2 (UbcH5B) ligases. The buffer contained ATP as detailed by Gomha and Abdelaziz. The reaction products were then resolved by SDSPAGE and p53 ubiquitination and were quantified by Western blotting using an anti-p53 antibody.
Briefly, rGSH-S-transferase-tagged MDM2 (GST-MDM2) was expressed in Escherichia coli BL21 cells using 1 mM isopropyl-thio-b-D-galactoside for 3 h. The enzyme was then purified on glutathione-sepharose beads (Amersham). Beads were washed with Tris (pH 7.5). The reaction contained fluorescent ubiquitin (5 µg; Invitrogen), 50 ng mammalian E1 (Enzo), 200 ng human rUbcH5B E2 (Enzo), 200 ng His-p53 (Enzo) and buffer [50 mM Tris pH 8,2 mM dithiothreitol, 5 mM MgCl2, 2 mM adenosine triphosphate (ATP)]. The MPD-compound or control mixture was dose-titrated onto GS4b-MDM2 beads. Incubation at 37 °C was followed by shaking (1200 rpm, 1 h). The reaction was terminated with 3× sodium dodecyl sulfate sample buffer. Finally, unbound fluorescent ubiquitin was drained and the total fluorescent ubiquitin signal was measured using a plate reader (Safire).
The procedure was performed similar to the aforementioned protocol except that 5 µg unlabeled ubiquitin (Enzo) was used. Following incubation, resolving of reaction products was performed using sodium dodecyl sulfate PGE. Analysis was done by western blotting using anti-p53 DO-1. For the MDM2 RING auto-ubiquitination assay, GS4b-MDM2 RING beads were prepared as above and were used in place of the full-length MDM2.

For a further data set, the system named is MCF-10A cells. Briefly: In vitro cytotoxicity against normal non-tumorigenic cells, MTT assay. The conditions noted are these: Homo sapiens, normal non-tumorigenic MCF-10A cells, read-out: IC50 (Mean ± SEM) MCF-10A. Format: cell-based. On the procedure: as §2
The target of a further data set is EGFR (Homo sapiens, UniProt P00533). Nature of the data set: EGFR kinase inhibition assay. The conditions noted are these: 8 μM ATP, poly(Glu,Tyr)4:1 substrate; read-out: IC50 (Mean ± SEM) EGFR. Format: biochemical. On the procedure: as §1
Chain of EGFR (P00533 25-1210): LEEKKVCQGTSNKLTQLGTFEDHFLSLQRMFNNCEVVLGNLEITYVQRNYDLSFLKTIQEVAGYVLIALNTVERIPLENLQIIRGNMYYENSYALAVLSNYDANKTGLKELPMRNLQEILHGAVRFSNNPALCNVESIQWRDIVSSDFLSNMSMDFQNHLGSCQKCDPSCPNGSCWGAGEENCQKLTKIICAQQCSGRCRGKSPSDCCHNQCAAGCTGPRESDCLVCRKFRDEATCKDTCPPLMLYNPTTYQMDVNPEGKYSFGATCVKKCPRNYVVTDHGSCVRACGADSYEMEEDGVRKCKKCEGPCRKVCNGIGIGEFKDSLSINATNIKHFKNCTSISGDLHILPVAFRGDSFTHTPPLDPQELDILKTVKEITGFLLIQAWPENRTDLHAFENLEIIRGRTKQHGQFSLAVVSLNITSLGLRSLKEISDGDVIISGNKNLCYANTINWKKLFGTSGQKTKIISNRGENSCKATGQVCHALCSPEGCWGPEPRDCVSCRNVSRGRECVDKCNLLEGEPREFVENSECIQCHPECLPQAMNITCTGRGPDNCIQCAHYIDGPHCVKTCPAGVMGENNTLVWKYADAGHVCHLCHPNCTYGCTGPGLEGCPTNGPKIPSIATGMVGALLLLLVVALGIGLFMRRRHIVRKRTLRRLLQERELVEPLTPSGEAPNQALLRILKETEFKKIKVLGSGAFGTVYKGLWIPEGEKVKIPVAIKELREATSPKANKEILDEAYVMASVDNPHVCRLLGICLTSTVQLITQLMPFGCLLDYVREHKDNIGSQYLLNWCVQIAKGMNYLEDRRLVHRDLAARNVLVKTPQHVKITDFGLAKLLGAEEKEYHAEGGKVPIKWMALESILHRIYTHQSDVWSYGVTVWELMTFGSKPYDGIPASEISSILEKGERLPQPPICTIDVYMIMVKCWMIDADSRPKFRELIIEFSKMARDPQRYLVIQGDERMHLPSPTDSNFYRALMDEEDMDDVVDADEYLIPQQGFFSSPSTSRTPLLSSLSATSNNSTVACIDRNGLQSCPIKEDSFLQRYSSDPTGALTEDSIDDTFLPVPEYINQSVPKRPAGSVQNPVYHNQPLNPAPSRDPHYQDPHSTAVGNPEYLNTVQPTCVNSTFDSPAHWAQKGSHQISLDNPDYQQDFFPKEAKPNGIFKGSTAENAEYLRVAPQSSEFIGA

In the case of `CC12CCC3c4ccc(O)cc4CCC3C1CC1=C2NC(=N)NC1c1ccccc1Cl` (centres unmarked) [Compound 5a, 2′-Imino-6′-(2-chlorophenyl)-estra-1(10),2,4,16(17)-tetraien-[17,16-d]-pyrimidino-3-ol], the melting point (commonly the temperature of the solid-liquid transition) is 286 to 288 °C. In addition, the “decrease in tumor growth” value with MCF-7 xenografts (after 2 days of treatment, vs control animals) is “about 25.36%”. For the same molecule, in the data set with MCF-7 xenografts (after 10 days of treatment), the “maximal inhibition of tumor growth” value amounted to 91.1%. The “inhibition percentage of tumor growth” value with MCF-7 xenografts (after 14 days of treatment) worked out at 88.7%. Moreover, the IC50 (commonly the concentration at which inhibition is half-maximal) in the data set with p53 ubiquitination stood at 0.22 ± 0.0043 µM. For the same molecule, the “fold more active than standard drug, in vivo p53 ubiquitination” value in the data set with p53 ubiquitination (vs diphenyl imidazole) is given as 8.6 fold. At VEGFR-2, the IC50 amounted to 0.027 ± 0.0012 µM. Further, the IC50 with MCF-7 cells was determined as 18.38 ± 0.13 µM. Besides, the “fold more toxic than the least active compound 7b towards MCF-7” value in the data set on MCF-7 cells (ratio of IC50 values, 5a vs 7b) is on record as 2.5 fold. The IC50 in data set [1] amounted to 16.4 ± 0.23 µM. Moreover, the “fold more active than standard drug, in vitro p53 ubiquitination” value in data set [1] (vs diphenyl imidazole) was 15.8 fold. Besides, the IC50 in the data set with MCF-10A cells worked out at 211 ± 7.53 µM. For the same molecule, the IC50 at EGFR worked out at 0.086 ± 0.0032 µM.
Take `CC12CCC3c4ccc(O)cc4CCC3C1CC1C2=NN(C(N)=S)C1c1ccc(Cl)cc1` (centres unmarked) [Compound 8b, 1-Thiocarbamoyl-1′H-(2′H)-5′-(4-chlorophenyl)-estra-1(10),2,4-trien-[17,16-c]pyrazoline-3-ol]: the melting point lay in the range of 252 to 256 °C. Besides, in the data set on p53 ubiquitination, the IC50 turned out to be 0.82 ± 0.0078 µM. Further, the IC50 at VEGFR-2 came out at 0.053 ± 0.0023 µM. In addition, in the data set with MCF-7 cells, the IC50 was 40.4 ± 0.95 µM. Further, the IC50 in data set [1] came to 64.6 ± 0.78 µM. In addition, in the data set on MCF-10A cells, the IC50 was 446 ± 15.4 µM. The IC50 at EGFR is 0.177 ± 0.0041 µM.
